This is an account of results in ChEMBL document CHEMBL3351791, “Some molecular targets for antihyperlipidemic drug research” (Eur J Med Chem, 2014).

What is called IC50 is the concentration needed to halve the response being measured. By ED50 is commonly meant the dose that gives a 50% effect, or the effect in half of the subjects.

For assay [1], the target named is T1, Cholesteryl ester transfer protein (Homo sapiens, UniProt P11597).
T1 sequence (P11597 whole entry): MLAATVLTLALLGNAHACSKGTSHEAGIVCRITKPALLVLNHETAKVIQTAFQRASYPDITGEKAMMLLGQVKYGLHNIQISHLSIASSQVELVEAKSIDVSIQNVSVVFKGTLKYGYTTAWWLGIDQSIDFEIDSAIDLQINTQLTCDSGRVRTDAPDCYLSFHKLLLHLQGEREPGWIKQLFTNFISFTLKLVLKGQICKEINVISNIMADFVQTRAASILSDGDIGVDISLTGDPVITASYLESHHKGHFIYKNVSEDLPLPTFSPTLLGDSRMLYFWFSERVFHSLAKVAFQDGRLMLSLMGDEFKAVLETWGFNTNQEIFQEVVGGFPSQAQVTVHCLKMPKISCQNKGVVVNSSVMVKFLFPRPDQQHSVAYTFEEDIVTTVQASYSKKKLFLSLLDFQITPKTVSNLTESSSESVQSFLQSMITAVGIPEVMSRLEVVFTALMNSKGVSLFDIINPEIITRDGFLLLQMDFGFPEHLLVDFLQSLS
The assay is described as follows: Inhibition of CETP-mediated [3H]-CE from HDL to LDL in human plasma.

The subject of another assay is Mus musculus. Briefly: Ex vivo inhibition of human CETP overexpressed in po dosed double transgenic mouse harboring human apoA1 assessed as elevation of HDL-cholesterol level measured at 8 hrs post dose. The format is functional.

In turn, `NCC(O)C(F)(F)F` (configuration not stated) registered an IC50 in assay [1] of 600 nM.

As to `Cc1cc(C)c2c(c1)[C@@H](N(Cc1cc(C(F)(F)F)cc(C(F)(F)F)c1)c1nnn(C)n1)CCCN2C[C@H]1CC[C@H](C(=O)O)CC1` [EVACETRAPIB], the ED50 in the assay with Mus musculus was less than 5 mg/kg.
